Experiments:
LATS1 = biological target: T1, LATS1 (Homo sapiens, UniProt O95835); experiment: Kinase inhibitory activity against LATS1 (ADP quantification); assay type: biochemical; conditions: ATP 400 μM, read-out: kinase inhibitory rate
T1 construct: purchased Carna Biosciences
T1 sequence (O95835 1-1130): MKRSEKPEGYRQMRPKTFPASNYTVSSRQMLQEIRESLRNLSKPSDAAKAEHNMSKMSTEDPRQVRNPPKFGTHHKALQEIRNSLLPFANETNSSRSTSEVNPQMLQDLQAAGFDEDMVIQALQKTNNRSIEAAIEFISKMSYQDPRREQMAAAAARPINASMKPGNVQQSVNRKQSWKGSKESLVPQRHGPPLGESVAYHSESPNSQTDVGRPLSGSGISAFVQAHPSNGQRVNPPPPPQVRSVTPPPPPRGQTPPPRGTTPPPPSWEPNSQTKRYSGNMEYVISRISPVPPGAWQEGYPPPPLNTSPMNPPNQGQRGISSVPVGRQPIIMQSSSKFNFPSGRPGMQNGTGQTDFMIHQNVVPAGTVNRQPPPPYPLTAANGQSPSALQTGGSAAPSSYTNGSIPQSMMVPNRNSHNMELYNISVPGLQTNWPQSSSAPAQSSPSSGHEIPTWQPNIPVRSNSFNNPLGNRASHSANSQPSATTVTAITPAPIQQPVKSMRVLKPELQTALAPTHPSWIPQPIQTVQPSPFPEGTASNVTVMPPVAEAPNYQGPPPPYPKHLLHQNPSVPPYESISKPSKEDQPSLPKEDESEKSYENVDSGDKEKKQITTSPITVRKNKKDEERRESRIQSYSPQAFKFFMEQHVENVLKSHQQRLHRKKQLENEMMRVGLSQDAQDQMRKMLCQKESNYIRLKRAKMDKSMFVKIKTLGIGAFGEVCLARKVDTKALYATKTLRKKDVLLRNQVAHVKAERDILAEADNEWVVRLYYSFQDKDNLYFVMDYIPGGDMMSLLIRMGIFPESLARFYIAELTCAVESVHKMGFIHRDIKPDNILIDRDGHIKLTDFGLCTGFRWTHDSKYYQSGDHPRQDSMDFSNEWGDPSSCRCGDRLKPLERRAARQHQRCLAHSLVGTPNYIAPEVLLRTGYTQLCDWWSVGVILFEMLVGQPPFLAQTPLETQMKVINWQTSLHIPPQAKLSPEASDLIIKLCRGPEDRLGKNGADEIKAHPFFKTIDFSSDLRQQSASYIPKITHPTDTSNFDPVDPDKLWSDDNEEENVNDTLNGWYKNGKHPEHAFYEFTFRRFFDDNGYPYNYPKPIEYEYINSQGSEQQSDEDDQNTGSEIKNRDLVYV
Method: (§1) Evaluation of the inhibitory activity (calculation of kinase inhibitory rate) of the compound of the present invention against LATS1 and LATS2 (manufactured by Carna Biosciences) was performed. The activity was measured using the Kinase Assay method described below. The test concentration of the compound of the present invention was set such that the final concentration was 100 nM or 1000 nM.
(§2) As the analysis method of the data, the mean signal of the control well containing reaction components other than the compound of the present invention was set to 0% inhibition, the mean signal without enzyme addition was set to 100% inhibition, and the inhibition rate was calculated from the mean signal of 2 wells of each compound.
(§3) 2 μL of a compound of the present invention solution at 2.5-fold concentration, 1 μL of substrate at 5-fold concentration (SGKtide: NH2-CKKRNRRLSVA-COOH, manufactured by SignalChem), ATP (manufactured by Sigma-Aldrich), MgCl2 (manufactured by FUJIFILM Wako Pure Chemical Corporation) solution (final concentration 10 μM, 400 μM and 5 mM, respectively), and 2 μL of kinase solution at 2.5-fold concentration (final concentration of LATS1 or LATS2 5 μg/mL), each prepared with assay buffer (20 mM HEPES, 0.01% Triton X-100, 2 mM DTT, 50 μg/mL BSA, pH 7.5), were mixed in the wells of a polypropylene 384-well plate (manufactured by Greiner Bio-One, #784900) and reacted at room temperature for 5 hr. To the solution was added 5 μL detection solution [Fluorospark (registered trade mark) Kinase/ADP Multi-Assay Kit; manufactured by FUJIFILM Wako Pure Chemical Corporation], and the mixture was reacted at room temperature for 30 min. Successively, 5 μL of a reaction quenching liquid [Fluorospark (registered trade mark) Kinase/ADP Multi-Assay Kit; manufactured by FUJIFILM Wako Pure Chemical Corporation] was added to discontinue the reaction. Thereafter, the ADP concentration of the reaction solution was quantified by EnSpire (manufactured by PerkinElmer) to detect the kinase reaction.

LATS2 = biological target: T2, LATS2 (Homo sapiens, UniProt Q9NRM7); experiment: Kinase inhibitory activity against LATS2 (ADP quantification); assay type: biochemical; conditions: ATP 400 μM, read-out: kinase inhibitory rate
T2 construct: purchased Carna Biosciences
T2 sequence (Q9NRM7 1-1088): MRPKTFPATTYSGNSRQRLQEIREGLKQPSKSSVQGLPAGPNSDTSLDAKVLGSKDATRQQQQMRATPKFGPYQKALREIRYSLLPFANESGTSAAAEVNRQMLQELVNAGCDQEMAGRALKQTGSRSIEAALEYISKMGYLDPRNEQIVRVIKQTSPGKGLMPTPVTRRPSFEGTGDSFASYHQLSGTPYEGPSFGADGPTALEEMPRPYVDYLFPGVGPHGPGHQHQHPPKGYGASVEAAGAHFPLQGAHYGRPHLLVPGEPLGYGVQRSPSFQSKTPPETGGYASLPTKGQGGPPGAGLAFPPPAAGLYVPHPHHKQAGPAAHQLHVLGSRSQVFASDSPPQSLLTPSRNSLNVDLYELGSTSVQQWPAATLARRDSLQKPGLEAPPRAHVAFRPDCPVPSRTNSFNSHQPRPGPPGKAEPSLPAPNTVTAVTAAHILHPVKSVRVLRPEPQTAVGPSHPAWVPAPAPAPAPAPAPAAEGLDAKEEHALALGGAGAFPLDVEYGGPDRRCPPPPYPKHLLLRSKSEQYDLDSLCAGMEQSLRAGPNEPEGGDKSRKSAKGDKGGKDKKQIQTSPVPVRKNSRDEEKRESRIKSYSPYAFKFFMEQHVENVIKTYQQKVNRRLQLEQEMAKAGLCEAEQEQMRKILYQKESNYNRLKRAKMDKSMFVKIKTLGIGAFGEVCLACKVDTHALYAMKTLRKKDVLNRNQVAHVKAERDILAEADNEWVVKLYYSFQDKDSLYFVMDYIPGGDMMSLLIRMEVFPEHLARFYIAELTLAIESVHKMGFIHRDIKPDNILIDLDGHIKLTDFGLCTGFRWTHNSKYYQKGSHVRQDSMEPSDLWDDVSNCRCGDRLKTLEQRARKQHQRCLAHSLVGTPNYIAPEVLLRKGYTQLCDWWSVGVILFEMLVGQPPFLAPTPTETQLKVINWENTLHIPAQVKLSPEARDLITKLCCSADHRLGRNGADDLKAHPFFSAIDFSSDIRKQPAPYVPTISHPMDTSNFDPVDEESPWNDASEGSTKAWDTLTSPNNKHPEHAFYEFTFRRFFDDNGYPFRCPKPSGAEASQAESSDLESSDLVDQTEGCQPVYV
Method: as §1, §2, §3

CC/C(=N\NC(=O)C(C)Nc1cccnc1)c1ccc(O)c(C)c1O (stereo not shown) [A-004, (E)-N′-(1-(2,4-dihydroxy-3-methylphenyl)propylidene)-2-(pyridin-3-ylamino)propanehydrazide]
≥ 40%: inhibition at 0.1 µM (LATS1; final concentration 100 nM) | inhibition at 1 µM (LATS1; final concentration 1000 nM) | inhibition at 0.1 µM (LATS2; final concentration 100 nM) | inhibition at 1 µM (LATS2; final concentration 1000 nM)

Source: patent US20220144775A1, “HYDRAZIDE COMPOUND AND KINASE INHIBITOR” (NISSAN CHEMICAL CORPORATION, priority 2019, published 2022)
